According to PubChem BioAssay AID1845208 (Molecular Pharmacology Branch, DTP, NCI, 2023):

Test system: NCI-H196 SCLC complex tumor spheroid viability
Test: Anticancer human tumor NCI-H196 cell line growth inhibition;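 note: spheroids exposed to compounds for 7 days before readout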;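 for viability, T/C: 100% = DMSO vehicle control wells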
Settings: for IC50: curve of first compound; for viability, T/C: stronger effect = lower value
Procedure, shortened: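 Complex tumor spheroids combined malignant cells with endothelial cells and mesenchymal stem cells. DNA-damaging drugs and DNA repair inhibitors were tested alone and in combination, at half-log dilutions down from clinical Cmax (top 10 microM if Cmax unknown), 0.25% DMSO final.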

[1] = second compound 30 pM, first compound 0.0316 µM
[2] = second compound 30 pM, first compound 0.1 µM
[3] = second compound 30 pM, first compound 0.316 µM
[4] = second compound 30 pM, first compound 1 µM
[5] = second compound 30 pM, first compound 3.16 µM
[6] = second compound 30 pM, first compound 10 µM
[7] = second compound 94.9 pM, first compound 0.0316 µM
[8] = second compound 94.9 pM, first compound 0.1 µM
[9] = second compound 94.9 pM, first compound 0.316 µM
[10] = second compound 94.9 pM, first compound 1 µM
[11] = second compound 94.9 pM, first compound 3.16 µM
[12] = second compound 94.9 pM, first compound 10 µM
[13] = second compound 0.0003 µM, first compound 0.0316 µM
[14] = second compound 0.0003 µM, first compound 0.1 µM
[15] = second compound 0.0003 µM, first compound 0.316 µM
[16] = second compound 0.0003 µM, first compound 1 µM
[17] = second compound 0.0003 µM, first compound 3.16 µM
[18] = second compound 0.0003 µM, first compound 10 µM
[19] = second compound 0.000949 µM, first compound 0.0316 µM
[20] = second compound 0.000949 µM, first compound 0.1 µM
[21] = second compound 0.000949 µM, first compound 0.316 µM
[22] = second compound 0.000949 µM, first compound 1 µM
[23] = second compound 0.000949 µM, first compound 3.16 µM
[24] = second compound 0.000949 µM, first compound 10 µM
[25] = second compound 0.003 µM, first compound 0.0316 µM
[26] = second compound 0.003 µM, first compound 0.1 µM
[27] = second compound 0.003 µM, first compound 0.316 µM
[28] = second compound 0.003 µM, first compound 1 µM
[29] = second compound 0.003 µM, first compound 3.16 µM
[30] = second compound 0.003 µM, first compound 10 µM
[31] = second compound 1 µM, first compound 0.00949 µM
[32] = second compound 1 µM, first compound 0.03 µM
[33] = second compound 1 µM, first compound 0.0949 µM
[34] = second compound 1 µM, first compound 0.3 µM
[35] = second compound 1 µM, first compound 0.949 µM
[36] = second compound 1 µM, first compound 3 µM
[37] = second compound 3.16 µM, first compound 0.00949 µM
[38] = second compound 3.16 µM, first compound 0.03 µM
[39] = second compound 3.16 µM, first compound 0.0949 µM
[40] = second compound 3.16 µM, first compound 0.3 µM
[41] = second compound 3.16 µM, first compound 0.949 µM
[42] = second compound 3.16 µM, first compound 3 µM
[43] = second compound 10 µM, first compound 0.00949 µM
[44] = second compound 10 µM, first compound 0.03 µM
[45] = second compound 10 µM, first compound 0.0949 µM
[46] = second compound 10 µM, first compound 0.3 µM
[47] = second compound 10 µM, first compound 0.949 µM
[48] = second compound 10 µM, first compound 3 µM
[49] = second compound 31.6 µM, first compound 0.00949 µM
[50] = second compound 31.6 µM, first compound 0.03 µM
[51] = second compound 31.6 µM, first compound 0.0949 µM
[52] = second compound 31.6 µM, first compound 0.3 µM
[53] = second compound 31.6 µM, first compound 0.949 µM
[54] = second compound 31.6 µM, first compound 3 µM
[55] = second compound 100 µM, first compound 0.00949 µM
[56] = second compound 100 µM, first compound 0.03 µM
[57] = second compound 100 µM, first compound 0.0949 µM
[58] = second compound 100 µM, first compound 0.3 µM
[59] = second compound 100 µM, first compound 0.949 µM
[60] = second compound 100 µM, first compound 3 µM

CC(C)n1c(=O)n(C)c2cnc3cc(F)c(-c4ccc(OCCCN5CCCCC5)nc4)cc3c21 + COc1cc2c(cc1O)CCNC21CSC2c3c(OC(C)=O)c(C)c4c(c3C(COC1=O)N1C(O)C3Cc5cc(C)c(OC)c(O)c5C(C21)N3C)OCO4
IC50 (second compound 30 pM): > 10 µM
IC50 (second compound 94.9 pM): > 10 µM
IC50 (second compound 0.0003 µM): > 10 µM
IC50 (second compound 0.000949 µM): > 10 µM
IC50 (second compound 0.003 µM): < 0.0316 µM
viability, T/C [1]: 104%
viability, T/C [2]: 106%
viability, T/C [3]: 106%
viability, T/C [4]: 104%
viability, T/C [5]: 114%
viability, T/C [6]: 107%
viability, T/C [7]: 106%
viability, T/C [8]: 107%
viability, T/C [9]: 105%
viability, T/C [10]: 107%
viability, T/C [11]: 123%
viability, T/C [12]: 112%
viability, T/C [13]: 103%
viability, T/C [14]: 112%
viability, T/C [15]: 111%
viability, T/C [16]: 112%
viability, T/C [17]: 116%
viability, T/C [18]: 104%
viability, T/C [19]: 93.8%
viability, T/C [20]: 97.7%
viability, T/C [21]: 92.6%
viability, T/C [22]: 93.7%
viability, T/C [23]: 106%
viability, T/C [24]: 95.2%
viability, T/C [25]: 7%
viability, T/C [26]: 6.41%
viability, T/C [27]: 9.42%
viability, T/C [28]: 3.31%
viability, T/C [29]: 2.99%
viability, T/C [30]: 3.29%

COc1ccc([C@@H](O)c2cc(-c3ncnc4cc(N5CCOCC5)ccc34)c(F)cc2Cl)nn1 + COc1cc2c(cc1O)CCNC21CSC2c3c(OC(C)=O)c(C)c4c(c3C(COC1=O)N1C(O)C3Cc5cc(C)c(OC)c(O)c5C(C21)N3C)OCO4
IC50 (second compound 30 pM): 9.14 µM
IC50 (second compound 94.9 pM): 7.24 µM
IC50 (second compound 0.0003 µM): 2.97 µM
IC50 (second compound 0.000949 µM): 0.975 µM
IC50 (second compound 0.003 µM): < 0.0316 µM
viability, T/C [1]: 103%
viability, T/C [2]: 94.9%
viability, T/C [3]: 93.8%
viability, T/C [4]: 77.8%
viability, T/C [5]: 62.6%
viability, T/C [6]: 49%
viability, T/C [7]: 106%
viability, T/C [8]: 107%
viability, T/C [9]: 93.6%
viability, T/C [10]: 75.4%
viability, T/C [11]: 60%
viability, T/C [12]: 46%
viability, T/C [13]: 99%
viability, T/C [14]: 96.7%
viability, T/C [15]: 91.1%
viability, T/C [16]: 69.5%
viability, T/C [17]: 50.2%
viability, T/C [18]: 32.5%
viability, T/C [19]: 81.8%
viability, T/C [20]: 80.6%
viability, T/C [21]: 78.1%
viability, T/C [22]: 45.3%
viability, T/C [23]: 26.6%
viability, T/C [24]: 9.62%
viability, T/C [25]: 8.41%
viability, T/C [26]: 3.38%
viability, T/C [27]: 3.43%
viability, T/C [28]: 0.71%
viability, T/C [29]: 0.82%
viability, T/C [30]: 0.59%

CNCc1ccc(-c2cc(-c3nc(-c4ccc(S(=O)(=O)C(C)C)cc4)cnc3N)on2)cc1 + Cn1nnc2c(C(N)=O)ncn2c1=O
IC50 (second compound 1 µM): > 3 µM
IC50 (second compound 3.16 µM): > 3 µM
IC50 (second compound 10 µM): > 3 µM
IC50 (second compound 31.6 µM): > 3 µM
IC50 (second compound 100 µM): > 3 µM
viability, T/C [31]: 100%
viability, T/C [32]: 92.1%
viability, T/C [33]: 106%
viability, T/C [34]: 99.5%
viability, T/C [35]: 84.1%
viability, T/C [36]: 85.2%
viability, T/C [37]: 98.7%
viability, T/C [38]: 97.4%
viability, T/C [39]: 104%
viability, T/C [40]: 105%
viability, T/C [41]: 88.1%
viability, T/C [42]: 88.2%
viability, T/C [43]: 100%
viability, T/C [44]: 96.3%
viability, T/C [45]: 105%
viability, T/C [46]: 99.5%
viability, T/C [47]: 95.3%
viability, T/C [48]: 84.4%
viability, T/C [49]: 102%
viability, T/C [50]: 113%
viability, T/C [51]: 106%
viability, T/C [52]: 105%
viability, T/C [53]: 91.4%
viability, T/C [54]: 82.9%
viability, T/C [55]: 107%
viability, T/C [56]: 109%
viability, T/C [57]: 112%
viability, T/C [58]: 99.6%
viability, T/C [59]: 88.3%
viability, T/C [60]: 84.3%

Cn1ncnc1[C@H]1c2n[nH]c(=O)c3cc(F)cc(c23)N[C@@H]1c1ccc(F)cc1 + Cn1nnc2c(C(N)=O)ncn2c1=O
IC50 (second compound 1 µM): > 3 µM
IC50 (second compound 3.16 µM): > 3 µM
IC50 (second compound 10 µM): > 3 µM
IC50 (second compound 31.6 µM): > 3 µM
IC50 (second compound 100 µM): > 3 µM
viability, T/C [31]: 103%
viability, T/C [32]: 92%
viability, T/C [33]: 99.5%
viability, T/C [34]: 95.5%
viability, T/C [35]: 86.6%
viability, T/C [36]: 94%
viability, T/C [37]: 105%
viability, T/C [38]: 105%
viability, T/C [39]: 104%
viability, T/C [40]: 103%
viability, T/C [41]: 88.9%
viability, T/C [42]: 99.5%
viability, T/C [43]: 104%
viability, T/C [44]: 100%
viability, T/C [45]: 104%
viability, T/C [46]: 90.9%
viability, T/C [47]: 110%
viability, T/C [48]: 89.2%
viability, T/C [49]: 104%
viability, T/C [50]: 91.6%
viability, T/C [51]: 94.8%
viability, T/C [52]: 93.2%
viability, T/C [53]: 100%
viability, T/C [54]: 91.3%
viability, T/C [55]: 102%
viability, T/C [56]: 94.5%
viability, T/C [57]: 94.5%
viability, T/C [58]: 94.8%
viability, T/C [59]: 99%
viability, T/C [60]: 89.5%

O=C(c1cc(Cc2n[nH]c(=O)c3ccccc23)ccc1F)N1CCN(C(=O)C2CC2)CC1 + Cn1nnc2c(C(N)=O)ncn2c1=O
IC50 (second compound 1 µM): > 30 µM
IC50 (second compound 3.16 µM): > 30 µM
IC50 (second compound 10 µM): > 30 µM
IC50 (second compound 31.6 µM): > 30 µM
IC50 (second compound 100 µM): > 30 µM
viability, T/C [33]: 102%
viability, T/C [34]: 102%
viability, T/C [35]: 93.3%
viability, T/C [36]: 89.1%
viability, T/C (second compound 1 µM, first compound 9.49 µM): 86.1%
viability, T/C (second compound 1 µM, first compound 30 µM): 83.7%
viability, T/C [39]: 97.7%
viability, T/C [40]: 94.3%
viability, T/C [41]: 104%
viability, T/C [42]: 98.1%
viability, T/C (second compound 3.16 µM, first compound 9.49 µM): 85.5%
viability, T/C (second compound 3.16 µM, first compound 30 µM): 79.8%
viability, T/C [45]: 99.6%
viability, T/C [46]: 97.9%
viability, T/C [47]: 92.6%
viability, T/C [48]: 95.2%
viability, T/C (second compound 10 µM, first compound 9.49 µM): 92.4%
viability, T/C (second compound 10 µM, first compound 30 µM): 90.8%
viability, T/C [51]: 101%
viability, T/C [52]: 101%
viability, T/C [53]: 100%
viability, T/C [54]: 106%
viability, T/C (second compound 31.6 µM, first compound 9.49 µM): 98.7%
viability, T/C (second compound 31.6 µM, first compound 30 µM): 86.8%
viability, T/C [57]: 95.6%
viability, T/C [58]: 96.5%
viability, T/C [59]: 98.7%
viability, T/C [60]: 87.6%
viability, T/C (second compound 100 µM, first compound 9.49 µM): 86.7%
viability, T/C (second compound 100 µM, first compound 30 µM): 76.2%
